# Measurements: PMC11823630, “In vitro potentiation of tetracyclines in Pseudomonas aeruginosa by RW01, a new cyclic peptide” (Antimicrobial Agents and Chemotherapy, 2024)
# What was measured:
# [1] = system: PAO1 mutant MIN1_RW01_4, pmrB(F124L); experiment: microbe, parasite or virus in culture; type: cell-based; details: Pseudomonas aeruginosa, PAO1, read-out: MIC, Sensititre
# Experimental: (§1) Selection of resistant mutants was performed for minocycline with and without RW01 in three independent replicates for wild-type P. aeruginosa reference strain PAO1. Tubes containing Mueller-Hinton broth (MHB) were inoculated and incubated for 24 h at 37°C. Afterward, 1/100 dilution of each tube was incubated at 37°C in MHB to late-exponential growth phase, measured by spectrophotometry at OD600. […] A control plate without antibiotic was included as inoculum control. After overnight incubation, colony counting of each treatment was performed to analyze the generation of resistant population. The mutant prevention concentration (MPC) was defined as the lowest concentration of antibiotic yielding no growth of resistant mutants. Selected mutants were checked for susceptibility profiles by using a Sensititre custom plate (Thermo Fisher Scientific, Massachusetts, USA) for Gram-negative bacteria, following the manufacturer’s instructions.
# [2] = system: PAO1 mutant MIN4_RW01_2, pmrB(F124S); experiment: microbe, parasite or virus in culture; type: cell-based; details: Pseudomonas aeruginosa, PAO1, read-out: MIC, Sensititre
# Experimental: as §1
# [3] = system: P. aeruginosa PAO1; experiment: MIC, CLSI broth microdilution in BD Phoenix AST Broth; type: cell-based, Pseudomonas aeruginosa; details: Pseudomonas aeruginosa, PAO1, strain PAO1; agent alone; 37°C, 18–22 h; three biological replicates; read-out: MIC
# Experimental: (§2) MIC for RW01 was also tested.
# (§3) FIC of RW01 (FICRW01)=MIC of RW01 in combination/MIC of RW01 alone,FIC of antibiotic (FICATB)=MIC of ATB in combination/MIC of ATB alone,FICI=FICRW01 +FICATB.
# (§4) FICI was interpreted as follows: synergistic effect if FICI is ≤0.5; additive effect if 0.5 < FICI ≤ 1.0; indifferent effect if 1.0 < FICI ≤ 2.0; and finally, antagonistic effect if FICI is >2.0. The average FICI considering the antibiotic MIC (no growth in any of the replicates) at different concentrations of RW01 was calculated ([28]).
# [4] = system: P. aeruginosa PAOΔoprM; experiment: as above; type: cell-based, Pseudomonas aeruginosa; details: Pseudomonas aeruginosa
# Experimental: as §2, §3, §4
# [5] = system: P. aeruginosa PAOΔmexR; experiment: as above; type: cell-based, Pseudomonas aeruginosa; details: Pseudomonas aeruginosa
# Experimental: as §2, §3, §4
# [6] = system: P. aeruginosa 125B; experiment: as above; type: cell-based, Pseudomonas aeruginosa; details: Pseudomonas aeruginosa; strain 125B; agent alone; 37°C, 18–22 h; three biological replicates
# Experimental: as §2, §3, §4
# [7] = system: P. aeruginosa 41B; experiment: as above; type: cell-based, Pseudomonas aeruginosa; details: Pseudomonas aeruginosa; strain 41B; agent alone; 37°C, 18–22 h; three biological replicates
# Experimental: as §2, §3, §4
# [8] = system: P. aeruginosa PAOΔmexZ; experiment: as above; type: cell-based, Pseudomonas aeruginosa; details: Pseudomonas aeruginosa, strain PAOΔmexZ; agent alone; 37°C, 18–22 h; three biological replicates
# Experimental: as §2, §3, §4
# [9] = system: P. aeruginosa PAOUW∆oprF; experiment: as above; type: cell-based, Pseudomonas aeruginosa; details: Pseudomonas aeruginosa, strain PAOUWΔoprF; agent alone; 37°C, 18–22 h; three biological replicates
# Experimental: as §2, §3, §4
# [10] = system: P. aeruginosa 125A; experiment: as above; type: cell-based, Pseudomonas aeruginosa; details: Pseudomonas aeruginosa; strain 125A; agent alone; 37°C, 18–22 h; three biological replicates
# Experimental: as §2, §3, §4
# [11] = system: P. aeruginosa 41A; experiment: as above; type: cell-based, Pseudomonas aeruginosa; details: Pseudomonas aeruginosa; strain 41A; agent alone; 37°C, 18–22 h; three biological replicates
# Experimental: as §2, §3, §4
# [12] = system: P. aeruginosa PAOUW; experiment: as above; type: cell-based, Pseudomonas aeruginosa; details: Pseudomonas aeruginosa, strain PAOUW; agent alone; 37°C, 18–22 h; three biological replicates; read-out: MIC
# Experimental: as §2, §3, §4
# [13] = system: PAO1 mutant MIN8_1, nalD(R3C), pilM(Q62X); experiment: MIC, Sensititre custom plate; type: cell-based; details: Pseudomonas aeruginosa, PAO1, read-out: MIC, Sensititre
# Experimental: as §1
# [14] = system: PAO1 mutant MIN4_RW01_3, pmrB(M292T); experiment: MIC, Sensititre custom plate; type: cell-based; details: Pseudomonas aeruginosa, PAO1, read-out: MIC, Sensititre
# Experimental: as §1
# [15] = system: PAO1 mutant MIN4_RW01_1, pmrB(R429H); experiment: MIC, Sensititre custom plate; type: cell-based; details: Pseudomonas aeruginosa, PAO1, read-out: MIC, Sensititre
# Experimental: as §1
# [16] = system: PAO1 mutant MIN32_1, mexR(R63H), pilB(N349K), PA0646(V316G); experiment: MIC, Sensititre custom plate; type: cell-based; details: Pseudomonas aeruginosa, PAO1, read-out: MIC, Sensititre
# Experimental: as §1
# [17] = system: PAO1 mutant MIN1_RW01_1, pmrB(Y98N); experiment: MIC, Sensititre custom plate; type: cell-based; details: Pseudomonas aeruginosa, PAO1, read-out: MIC, Sensititre
# Experimental: as §1
# [18] = system: PAO1 mutant MIN1_RW01_2, mexR(G58E), pilB(G326D), hutC(Y181X); experiment: MIC, Sensititre custom plate; type: cell-based; details: Pseudomonas aeruginosa, PAO1, read-out: MIC, Sensititre
# Experimental: as §1
# [19] = system: PAO1 mutant MIN2_RW01_2, pmrB(M292T); experiment: MIC, Sensititre custom plate; type: cell-based; details: Pseudomonas aeruginosa, PAO1, read-out: MIC, Sensititre
# Experimental: as §1
# [20] = system: PAO1 mutant MIN4_RW01_4, pmrB(Y98N); experiment: MIC, Sensititre custom plate; type: cell-based; details: Pseudomonas aeruginosa, PAO1, read-out: MIC, Sensititre
# Experimental: as §1
# [21] = system: PAO1 mutant MIN16_4, nalC(T50P), pilM(Q62X); experiment: MIC, Sensititre custom plate; type: cell-based; details: Pseudomonas aeruginosa, PAO1, read-out: MIC, Sensititre
# Experimental: as §1
# [22] = system: PAO1 mutant MIN2_RW01_1, pmrB(V215L); experiment: MIC, Sensititre custom plate; type: cell-based; details: Pseudomonas aeruginosa, PAO1, read-out: MIC, Sensititre
# Experimental: as §1
# [23] = system: PAO1 mutant MIN8_4, pilZ(nt18InsT); experiment: MIC, Sensititre custom plate; type: cell-based; details: Pseudomonas aeruginosa, PAO1, read-out: MIC, Sensititre
# Experimental: as §1
# [24] = system: PAO1 mutant MIN8_2, pilZ(nt18InsT); experiment: MIC, Sensititre custom plate; type: cell-based; details: Pseudomonas aeruginosa, PAO1, read-out: MIC, Sensititre
# Experimental: as §1
# [25] = system: PAO1 mutant MIN16_1, nalD(T43P); experiment: MIC, Sensititre custom plate; type: cell-based; details: Pseudomonas aeruginosa, PAO1, read-out: MIC, Sensititre
# Experimental: as §1
# [26] = system: PAO1 mutant MIN1_RW01_3, pmrB(V215L); experiment: MIC, Sensititre custom plate; type: cell-based; details: Pseudomonas aeruginosa, PAO1, read-out: MIC, Sensititre
# Experimental: as §1
# [27] = system: PAO1 mutant MIN2_RW01_4, pmrB(M292T); experiment: MIC, Sensititre custom plate; type: cell-based; details: Pseudomonas aeruginosa, PAO1, read-out: MIC, Sensititre
# Experimental: as §1
# [28] = system: PAO1 mutant MIN16_3, nfxB(nt79∆14), pilB(N349K); experiment: MIC, Sensititre custom plate; type: cell-based; details: Pseudomonas aeruginosa, PAO1, read-out: MIC, Sensititre
# Experimental: as §1
# [29] = system: P. aeruginosa PAO1, WT; experiment: MIC, Sensititre custom plate; type: cell-based; details: Pseudomonas aeruginosa, PAO1, read-out: MIC, Sensititre
# Experimental: as §1
# [30] = system: PAO1 mutant MIN16_2, nalC(aa9∆4), pilQ(nt46∆1); experiment: MIC, Sensititre custom plate; type: cell-based; details: Pseudomonas aeruginosa, PAO1, read-out: MIC, Sensititre
# Experimental: as §1
# [31] = system: PAO1 mutant MIN8_3, pilZ(nt18InsT); experiment: MIC, Sensititre custom plate; type: cell-based; details: Pseudomonas aeruginosa, PAO1, read-out: MIC, Sensititre
# Experimental: as §1
# [32] = system: PAO1 mutant MIN2_RW01_3, parS(V152A); experiment: MIC, Sensititre custom plate; type: cell-based; details: Pseudomonas aeruginosa, PAO1, read-out: MIC, Sensititre
# Experimental: as §1
structure (smiles),measurement,setting,value
"C[C@@H](O)[C@H]1C(=O)N2C(C(=O)O)=C(S[C@@H]3CN[C@H](C(=O)N(C)C)C3)[C@H](C)[C@H]12 [Meropenem, meropenem]",MIC,[1],1 µg/mL
same,MIC,[2],≤ 0.5 µg/mL
same,MIC,[3],0.5 µg/mL
same,MIC,[4],0.125 µg/mL
same,MIC,[5],1 µg/mL
same,MIC,[6],0.5 µg/mL
same,MIC,[7],16 µg/mL
same,MIC,[8],0.5 µg/mL
same,MIC,[9],2 µg/mL
same,MIC,[10],0.5 µg/mL
same,MIC,[11],4 µg/mL
same,MIC,[12],1 µg/mL
same,MIC,[13],2 µg/mL
same,MIC,[14],2 µg/mL
same,MIC,[15],4 µg/mL
same,MIC,[16],4 µg/mL
same,MIC,[17],1 µg/mL
same,MIC,[18],4 µg/mL
same,MIC,[19],1 µg/mL
same,MIC,[20],1 µg/mL
same,MIC,[21],2 µg/mL
same,MIC,[22],1 µg/mL
same,MIC,[23],2 µg/mL
same,MIC,[24],2 µg/mL
same,MIC,[25],4 µg/mL
same,MIC,[26],1 µg/mL
same,MIC,[27],1 µg/mL
same,MIC,[28],≤ 0.5 µg/mL
same,MIC,[29],1 to 2 µg/mL
same,MIC,[30],2 µg/mL
same,MIC,[31],2 µg/mL
same,MIC,[32],2 to 4 µg/mL
